According to publication PMC6437697 (Journal of Medicinal Chemistry, 2019):

Experiments:
Test in all cases: KINOMEscan
Format in all cases: binding
Settings in all cases: read-out: % control activity remaining
SRPK2 = biological target: T1, SRPK2 (Homo sapiens, UniProt P78362)
T1 construct: purchased Eurofins DiscoverX KINOMEscan

YANK1 = biological target: T2, YANK1 (Homo sapiens, UniProt Q8WU08)
T2 construct: purchased Eurofins DiscoverX KINOMEscan

PYK2 = biological target: T3, PYK2 (Homo sapiens, UniProt Q14289)
T3 construct: purchased Eurofins DiscoverX KINOMEscan

TAOK2 = biological target: T4, TAOK2 (Homo sapiens, UniProt Q9UL54)
T4 construct: purchased Eurofins DiscoverX KINOMEscan
T4 sequence (Q9UL54 1-1235): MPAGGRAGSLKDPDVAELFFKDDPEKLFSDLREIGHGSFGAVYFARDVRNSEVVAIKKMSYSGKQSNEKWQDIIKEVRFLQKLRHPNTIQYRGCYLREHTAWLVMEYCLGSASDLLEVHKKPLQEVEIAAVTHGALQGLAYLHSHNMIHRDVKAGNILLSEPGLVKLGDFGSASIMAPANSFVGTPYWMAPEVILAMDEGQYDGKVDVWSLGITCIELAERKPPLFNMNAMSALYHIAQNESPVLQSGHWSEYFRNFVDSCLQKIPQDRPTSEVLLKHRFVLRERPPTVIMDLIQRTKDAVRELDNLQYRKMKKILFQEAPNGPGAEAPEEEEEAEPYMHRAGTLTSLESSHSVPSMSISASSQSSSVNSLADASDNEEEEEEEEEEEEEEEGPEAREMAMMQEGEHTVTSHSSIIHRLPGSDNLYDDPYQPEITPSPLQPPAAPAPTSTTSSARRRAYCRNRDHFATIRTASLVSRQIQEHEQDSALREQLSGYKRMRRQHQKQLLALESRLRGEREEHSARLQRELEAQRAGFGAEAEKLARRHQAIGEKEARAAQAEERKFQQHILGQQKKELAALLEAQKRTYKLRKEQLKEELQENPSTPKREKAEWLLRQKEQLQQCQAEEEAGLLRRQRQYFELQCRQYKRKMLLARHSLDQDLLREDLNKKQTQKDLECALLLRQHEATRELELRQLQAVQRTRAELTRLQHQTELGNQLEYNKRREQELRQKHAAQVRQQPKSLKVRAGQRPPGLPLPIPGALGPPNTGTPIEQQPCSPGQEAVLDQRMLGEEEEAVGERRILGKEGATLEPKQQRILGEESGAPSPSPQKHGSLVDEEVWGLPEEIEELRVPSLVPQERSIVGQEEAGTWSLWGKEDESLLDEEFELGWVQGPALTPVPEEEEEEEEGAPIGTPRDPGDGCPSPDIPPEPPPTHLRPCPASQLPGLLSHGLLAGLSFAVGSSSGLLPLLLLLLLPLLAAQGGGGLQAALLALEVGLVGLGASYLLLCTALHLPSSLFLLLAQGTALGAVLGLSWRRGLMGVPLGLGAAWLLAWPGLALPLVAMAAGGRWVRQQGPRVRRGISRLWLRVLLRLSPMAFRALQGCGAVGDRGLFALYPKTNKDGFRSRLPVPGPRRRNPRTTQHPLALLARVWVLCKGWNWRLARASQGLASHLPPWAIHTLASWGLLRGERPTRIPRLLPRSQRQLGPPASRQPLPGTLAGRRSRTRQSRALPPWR

PRKG1 = biological target: T5, PRKG1 (Homo sapiens, UniProt Q13976)
T5 construct: purchased Eurofins DiscoverX KINOMEscan
T5 sequence (Q13976 1-671): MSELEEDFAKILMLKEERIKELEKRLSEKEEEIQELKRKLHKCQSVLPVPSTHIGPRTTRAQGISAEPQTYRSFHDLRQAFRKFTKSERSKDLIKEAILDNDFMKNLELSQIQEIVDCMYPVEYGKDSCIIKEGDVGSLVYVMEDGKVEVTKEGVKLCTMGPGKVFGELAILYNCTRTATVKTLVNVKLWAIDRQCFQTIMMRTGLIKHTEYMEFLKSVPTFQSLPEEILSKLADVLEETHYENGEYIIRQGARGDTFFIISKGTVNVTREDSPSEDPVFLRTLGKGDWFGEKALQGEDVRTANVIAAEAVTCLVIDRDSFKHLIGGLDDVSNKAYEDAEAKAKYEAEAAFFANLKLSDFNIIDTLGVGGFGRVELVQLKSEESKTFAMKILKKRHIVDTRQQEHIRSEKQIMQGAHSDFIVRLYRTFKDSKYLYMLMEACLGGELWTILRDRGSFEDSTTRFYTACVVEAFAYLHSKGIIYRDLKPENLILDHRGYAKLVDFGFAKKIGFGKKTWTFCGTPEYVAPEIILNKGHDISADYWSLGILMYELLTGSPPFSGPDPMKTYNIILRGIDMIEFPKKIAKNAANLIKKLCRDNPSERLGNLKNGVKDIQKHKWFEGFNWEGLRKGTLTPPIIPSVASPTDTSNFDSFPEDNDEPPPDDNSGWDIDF

PIK3CA(M1043I) = biological target: T6, PIK3CA(M1043I) (Homo sapiens, UniProt P42336, M1043I)
T6 construct: purchased Eurofins DiscoverX KINOMEscan

HCK = biological target: T7, HCK (Homo sapiens, UniProt P08631)
T7 construct: purchased Eurofins DiscoverX KINOMEscan

ROCK2 = biological target: T8, ROCK2 (Homo sapiens, UniProt O75116)
T8 construct: purchased Eurofins DiscoverX KINOMEscan

EPHA2 = biological target: T9, EPHA2 (Homo sapiens, UniProt P29317)
T9 construct: purchased Eurofins DiscoverX KINOMEscan

CDK7 = biological target: T10, CDK7 (Homo sapiens, UniProt P50613)
T10 construct: purchased Eurofins DiscoverX KINOMEscan

HPK1 = biological target: T11, HPK1 (Homo sapiens, UniProt Q92918)
T11 construct: purchased Eurofins DiscoverX KINOMEscan
T11 sequence (Q92918 whole entry): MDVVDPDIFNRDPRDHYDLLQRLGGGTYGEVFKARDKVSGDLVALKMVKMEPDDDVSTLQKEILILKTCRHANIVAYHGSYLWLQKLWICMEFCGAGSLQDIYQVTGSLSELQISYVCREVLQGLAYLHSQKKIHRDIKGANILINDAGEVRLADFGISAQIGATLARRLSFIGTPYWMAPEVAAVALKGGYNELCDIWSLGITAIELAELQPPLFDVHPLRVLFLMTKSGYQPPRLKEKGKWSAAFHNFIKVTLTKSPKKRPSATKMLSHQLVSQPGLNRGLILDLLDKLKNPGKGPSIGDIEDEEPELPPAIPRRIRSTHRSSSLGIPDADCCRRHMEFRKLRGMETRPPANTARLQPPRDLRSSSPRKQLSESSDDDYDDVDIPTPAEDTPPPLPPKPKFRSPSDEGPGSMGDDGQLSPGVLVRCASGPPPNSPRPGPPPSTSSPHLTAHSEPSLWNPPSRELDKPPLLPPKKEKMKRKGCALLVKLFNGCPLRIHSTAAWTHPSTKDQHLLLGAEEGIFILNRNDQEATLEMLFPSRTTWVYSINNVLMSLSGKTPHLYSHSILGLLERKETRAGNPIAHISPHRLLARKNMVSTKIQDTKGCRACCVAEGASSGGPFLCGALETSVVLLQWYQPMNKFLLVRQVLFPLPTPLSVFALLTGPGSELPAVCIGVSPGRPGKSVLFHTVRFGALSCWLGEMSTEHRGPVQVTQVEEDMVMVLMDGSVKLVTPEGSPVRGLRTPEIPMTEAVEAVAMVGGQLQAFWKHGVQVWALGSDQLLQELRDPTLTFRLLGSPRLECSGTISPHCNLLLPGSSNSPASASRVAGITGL

T7 sequence (P08631 whole entry): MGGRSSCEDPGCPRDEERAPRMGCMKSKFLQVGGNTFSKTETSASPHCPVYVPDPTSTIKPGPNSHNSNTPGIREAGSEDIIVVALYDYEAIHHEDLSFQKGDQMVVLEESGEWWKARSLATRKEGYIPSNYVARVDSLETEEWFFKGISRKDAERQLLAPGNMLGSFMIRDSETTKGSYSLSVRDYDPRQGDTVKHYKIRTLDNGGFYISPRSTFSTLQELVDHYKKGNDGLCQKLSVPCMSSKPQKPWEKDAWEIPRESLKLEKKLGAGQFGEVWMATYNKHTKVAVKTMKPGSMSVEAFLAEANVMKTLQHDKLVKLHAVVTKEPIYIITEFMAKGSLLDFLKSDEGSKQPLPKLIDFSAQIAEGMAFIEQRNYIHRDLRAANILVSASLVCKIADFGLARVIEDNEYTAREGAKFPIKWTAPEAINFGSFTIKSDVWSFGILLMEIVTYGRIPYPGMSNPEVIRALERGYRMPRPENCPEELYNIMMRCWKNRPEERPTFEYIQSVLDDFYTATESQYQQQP
T6 sequence (P42336 whole entry M1043I): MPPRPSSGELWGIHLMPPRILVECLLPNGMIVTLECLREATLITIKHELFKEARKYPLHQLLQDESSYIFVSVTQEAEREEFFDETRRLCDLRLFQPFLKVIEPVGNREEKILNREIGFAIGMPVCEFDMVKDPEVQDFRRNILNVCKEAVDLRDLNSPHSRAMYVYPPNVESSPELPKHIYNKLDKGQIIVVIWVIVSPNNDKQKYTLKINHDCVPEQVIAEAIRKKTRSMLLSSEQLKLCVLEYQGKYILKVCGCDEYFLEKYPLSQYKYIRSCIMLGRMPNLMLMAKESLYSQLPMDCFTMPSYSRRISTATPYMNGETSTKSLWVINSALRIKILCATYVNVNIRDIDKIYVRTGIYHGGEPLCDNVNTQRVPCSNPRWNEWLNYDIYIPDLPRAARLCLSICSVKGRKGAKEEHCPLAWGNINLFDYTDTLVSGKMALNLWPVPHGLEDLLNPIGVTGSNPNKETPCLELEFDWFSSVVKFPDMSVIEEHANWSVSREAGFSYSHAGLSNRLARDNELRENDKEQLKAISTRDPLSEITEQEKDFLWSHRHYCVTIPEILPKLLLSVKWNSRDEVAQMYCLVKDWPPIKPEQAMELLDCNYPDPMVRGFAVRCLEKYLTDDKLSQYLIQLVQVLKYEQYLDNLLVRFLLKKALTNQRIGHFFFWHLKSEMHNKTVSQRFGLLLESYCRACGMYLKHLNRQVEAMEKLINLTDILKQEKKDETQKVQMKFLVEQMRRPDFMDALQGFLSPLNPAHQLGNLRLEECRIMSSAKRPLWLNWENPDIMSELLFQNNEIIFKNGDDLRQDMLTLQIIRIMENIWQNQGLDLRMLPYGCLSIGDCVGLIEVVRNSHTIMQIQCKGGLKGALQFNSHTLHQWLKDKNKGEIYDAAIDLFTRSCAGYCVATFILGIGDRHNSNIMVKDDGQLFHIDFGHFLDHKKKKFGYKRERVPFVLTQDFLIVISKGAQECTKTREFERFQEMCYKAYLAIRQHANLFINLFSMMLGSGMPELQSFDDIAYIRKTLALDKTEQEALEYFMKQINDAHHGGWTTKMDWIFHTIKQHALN
T9 sequence (P29317 24-976): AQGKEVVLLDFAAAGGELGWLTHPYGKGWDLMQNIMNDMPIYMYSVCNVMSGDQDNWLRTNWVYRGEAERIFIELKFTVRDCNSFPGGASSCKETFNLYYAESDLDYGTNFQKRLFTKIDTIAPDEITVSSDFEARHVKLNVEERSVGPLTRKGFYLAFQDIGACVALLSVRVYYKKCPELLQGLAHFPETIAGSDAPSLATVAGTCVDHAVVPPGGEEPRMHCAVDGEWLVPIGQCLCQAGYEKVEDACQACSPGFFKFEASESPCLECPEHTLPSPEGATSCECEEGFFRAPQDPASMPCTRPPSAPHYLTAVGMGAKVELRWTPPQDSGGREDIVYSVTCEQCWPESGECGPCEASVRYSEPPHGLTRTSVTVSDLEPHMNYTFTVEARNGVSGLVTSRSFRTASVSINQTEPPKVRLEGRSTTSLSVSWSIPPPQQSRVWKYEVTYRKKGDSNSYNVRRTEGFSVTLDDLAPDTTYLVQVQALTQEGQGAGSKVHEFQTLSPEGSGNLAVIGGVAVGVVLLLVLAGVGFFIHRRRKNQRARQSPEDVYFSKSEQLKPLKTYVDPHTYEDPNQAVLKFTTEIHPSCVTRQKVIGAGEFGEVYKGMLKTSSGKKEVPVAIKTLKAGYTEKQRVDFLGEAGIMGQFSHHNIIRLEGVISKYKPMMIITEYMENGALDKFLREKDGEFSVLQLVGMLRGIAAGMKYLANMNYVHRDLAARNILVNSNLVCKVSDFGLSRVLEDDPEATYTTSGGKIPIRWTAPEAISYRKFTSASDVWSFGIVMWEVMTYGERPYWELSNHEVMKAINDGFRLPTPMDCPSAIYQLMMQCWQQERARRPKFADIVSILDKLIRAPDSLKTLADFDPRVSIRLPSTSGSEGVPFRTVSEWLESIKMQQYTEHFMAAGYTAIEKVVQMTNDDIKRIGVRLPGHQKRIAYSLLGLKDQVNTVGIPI
T10 sequence (P50613 whole entry): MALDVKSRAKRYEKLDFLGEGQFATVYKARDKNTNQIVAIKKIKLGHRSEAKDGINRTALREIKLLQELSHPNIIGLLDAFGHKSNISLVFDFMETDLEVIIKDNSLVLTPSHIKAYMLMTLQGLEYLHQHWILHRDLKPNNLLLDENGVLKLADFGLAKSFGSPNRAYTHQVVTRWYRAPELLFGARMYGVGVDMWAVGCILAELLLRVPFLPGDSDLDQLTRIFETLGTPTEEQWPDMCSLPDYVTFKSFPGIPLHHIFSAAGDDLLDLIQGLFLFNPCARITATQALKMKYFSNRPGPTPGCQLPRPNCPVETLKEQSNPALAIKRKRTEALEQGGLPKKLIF
T2 sequence (Q8WU08 whole entry): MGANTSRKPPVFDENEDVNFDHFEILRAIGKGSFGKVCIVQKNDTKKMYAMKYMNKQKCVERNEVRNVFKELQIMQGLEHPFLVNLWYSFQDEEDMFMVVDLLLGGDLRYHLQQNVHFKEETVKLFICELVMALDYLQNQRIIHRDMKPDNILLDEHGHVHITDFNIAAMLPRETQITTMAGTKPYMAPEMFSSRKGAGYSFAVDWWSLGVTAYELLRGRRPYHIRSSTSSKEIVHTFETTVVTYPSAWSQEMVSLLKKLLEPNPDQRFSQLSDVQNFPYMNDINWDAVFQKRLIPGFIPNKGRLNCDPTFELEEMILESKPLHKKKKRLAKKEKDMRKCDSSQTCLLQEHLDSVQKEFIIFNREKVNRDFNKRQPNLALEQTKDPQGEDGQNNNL
T1 sequence (P78362 whole entry): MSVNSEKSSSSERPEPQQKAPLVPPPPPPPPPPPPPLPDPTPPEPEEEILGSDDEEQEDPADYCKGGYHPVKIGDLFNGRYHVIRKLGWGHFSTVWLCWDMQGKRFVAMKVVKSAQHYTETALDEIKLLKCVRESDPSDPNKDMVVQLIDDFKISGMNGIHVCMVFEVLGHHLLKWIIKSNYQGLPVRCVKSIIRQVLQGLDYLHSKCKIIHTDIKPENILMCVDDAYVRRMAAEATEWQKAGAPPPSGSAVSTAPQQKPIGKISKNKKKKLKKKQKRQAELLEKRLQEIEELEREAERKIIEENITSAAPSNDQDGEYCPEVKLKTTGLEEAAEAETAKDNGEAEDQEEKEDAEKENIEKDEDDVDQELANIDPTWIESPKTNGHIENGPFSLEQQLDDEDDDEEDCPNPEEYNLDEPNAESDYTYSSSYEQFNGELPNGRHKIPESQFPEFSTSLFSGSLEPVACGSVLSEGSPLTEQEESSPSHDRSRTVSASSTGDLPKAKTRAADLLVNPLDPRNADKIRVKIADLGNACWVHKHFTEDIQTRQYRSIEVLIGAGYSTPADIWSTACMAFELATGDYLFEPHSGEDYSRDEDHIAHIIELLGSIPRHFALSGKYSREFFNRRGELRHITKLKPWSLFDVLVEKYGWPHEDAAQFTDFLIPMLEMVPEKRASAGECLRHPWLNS

Compound	remaining binding at 1 µM (SRPK2) [%]	remaining binding at 1 µM (YANK1) [%]	remaining binding at 1 µM (PYK2) [%]	remaining binding at 1 µM (TAOK2) [%]	remaining binding at 1 µM (PRKG1) [%]	remaining binding at 1 µM (PIK3CA(M1043I)) [%]	remaining binding at 1 µM (HCK) [%]	remaining binding at 1 µM (ROCK2) [%]	remaining binding at 1 µM (EPHA2) [%]	remaining binding at 1 µM (CDK7) [%]	remaining binding at 1 µM (HPK1) [%]
Clc1cc(NCC2CC2)c2ncc(-c3ccc4[nH]ncc4c3)n2n1 [compound 2, 6-Chloro-N-(cyclopropylmethyl)-3-(1H-indazol-5-yl)imidazo[1,2-b]pyridazin-8-amine]	73	95	84	87	84	59	80	31	94	68	75
O=C(CN1CCOCC1)N[C@H]1CC[C@H](Nc2cc(Cl)nn3c(-c4ccc5[nH]ncc5c4)cnc23)CC1 [compound 26]	79	98	86	100	32	81	93	21	99	16	88
CN1CCC(CNc2cc(Cl)nn3c(-c4cc5nc(Nc6ccccc6)[nH]c5cc4F)cnc23)CC1 [compound 31, 6-Chloro-3-(6-fluoro-2-(phenylamino)-1H-benzo[d]imidazol-5-yl)-N-((1-methylpiperidin-4-yl)methyl)imidazo[1,2-b]pyridazin-8-amine]	93	73	99	98	83	78	87	100	94	61	97
